Biological target: Glycogen synthase kinase-3 beta (Homo sapiens, UniProt P49841)
Assay: Binding affinity to recombinant GSK3beta (unknown origin) assessed as dissociation rate constant upto 0.00975 uM by SPR analysis

Chain of Glycogen synthase kinase-3 beta (P49841 whole entry): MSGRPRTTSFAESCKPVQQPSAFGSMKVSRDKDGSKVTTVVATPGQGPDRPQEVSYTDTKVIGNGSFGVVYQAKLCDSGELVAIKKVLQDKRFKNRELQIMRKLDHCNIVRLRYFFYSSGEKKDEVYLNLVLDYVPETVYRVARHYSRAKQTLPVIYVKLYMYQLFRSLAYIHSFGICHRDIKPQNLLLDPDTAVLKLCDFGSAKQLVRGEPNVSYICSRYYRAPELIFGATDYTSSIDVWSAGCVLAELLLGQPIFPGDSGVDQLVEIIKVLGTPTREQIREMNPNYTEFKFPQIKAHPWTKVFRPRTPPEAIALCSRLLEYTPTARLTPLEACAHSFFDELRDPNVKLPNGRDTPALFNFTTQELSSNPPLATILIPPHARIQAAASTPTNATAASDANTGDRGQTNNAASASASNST

koff: 0.0253 s⁻¹
SMILES: Nc1ncc(-c2ccc(S(=O)(=O)N3CCN(CCCCc4cn(CCOCCOCCOCCOCCOCCNc5cccc6c5C(=O)N(C5CCC(=O)NC5=O)C6=O)nn4)CC3)cc2)nc1C(=O)Nc1cccnc1 (stereo unspecified)

From BindingDB's records for doi:10.1016/j.ejmech.2021.113889 (China Pharmaceutical University, 2021)
